Measured values from ChEMBL document CHEMBL1201862, “PubChem BioAssay data set” (2004).
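Five concentrations, 48 hours, 96-well plates. The concentration for 50% growth inhibition is given as GI50.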 Activity calls are given as the source filed them. Cut-off read from the data, not from the text of the source: active = GI50 up to about 1.1 µM and inactive = higher.

Experiments:
Test in all cases: NCI-60 cell line screen, 48 h
[1] = tested on: 786-0
[2] = tested on: A498
[3] = tested on: A549
[4] = tested on: ACHN
[5] = tested on: CAKI-1
[6] = tested on: CCRF-CEM
[7] = tested on: COLO 205
[8] = tested on: DU-145
[9] = tested on: EKVX
[10] = tested on: HCC 2998
[11] = tested on: HCT-116
[12] = tested on: HCT-15
[13] = tested on: HL-60
[14] = tested on: HOP-62
[15] = tested on: HOP-92
[16] = tested on: K562
[17] = tested on: KM12
[18] = tested on: LOX IMVI
[19] = tested on: M14
[20] = tested on: MCF7
[21] = tested on: MDA-MB-231
[22] = tested on: MDA-MB-435
[23] = tested on: MDA-N
[24] = tested on: MOLT-4
[25] = tested on: NCI-H226
[26] = tested on: NCI-H23
[27] = tested on: NCI-H460
[28] = tested on: NCI/ADR-RES
[29] = tested on: OVCAR-3
[30] = tested on: OVCAR-4
[31] = tested on: OVCAR-5
[32] = tested on: OVCAR-8
[33] = tested on: PC-3
[34] = tested on: RPMI-8226
[35] = tested on: RXF 393
[36] = tested on: SF-268
[37] = tested on: SF-295
[38] = tested on: SK-MEL-28
[39] = tested on: SK-MEL-2
[40] = tested on: SK-MEL-5
[41] = tested on: SK-OV-3
[42] = tested on: SN12C
[43] = tested on: SNB-19
[44] = tested on: SNB-75
[45] = tested on: SR
[46] = tested on: SW-620
[47] = tested on: T47D
[48] = tested on: U-251
[49] = tested on: UACC-257
[50] = tested on: UACC-62
[51] = tested on: UO-31
[52] = tested on: BT-549
[53] = tested on: HT-29
[54] = tested on: IGROV-1
[55] = tested on: Malme-3M
[56] = tested on: NCI-H522
[57] = tested on: TK-10

Measured: GI50

CN(C(=O)C1=CCC2(CC1)OCCO2)c1ccccc1OS(=O)(=O)C(F)(F)F
inactive: [1] 24.3 µM | [2] > 100 µM | [3] > 100 µM | [4] > 100 µM | [5] > 100 µM | [6] 43.2 µM | [7] > 100 µM | [8] > 100 µM | [9] > 100 µM | [10] > 100 µM | [11] > 100 µM | [13] > 100 µM | [14] 27.4 µM | [15] > 100 µM | [16] > 100 µM | [17] 25.3 µM | [18] 59.7 µM | [19] > 100 µM | [20] > 100 µM | [21] > 100 µM | [22] > 100 µM | [23] > 100 µM | [24] > 100 µM | [25] 16.2 µM | [26] > 100 µM | [27] 85.3 µM | [28] 53.3 µM | [29] > 100 µM | [30] 57.8 µM | [31] > 100 µM | [32] 81.5 µM | [33] > 100 µM | [34] > 100 µM | [35] > 100 µM | [36] 8.26 µM | [37] 90.2 µM | [38] > 100 µM | [39] > 100 µM | [40] > 100 µM | [41] > 100 µM | [42] > 100 µM | [43] > 100 µM | [44] 15.5 µM | [45] > 100 µM | [46] > 100 µM | [47] > 100 µM | [48] > 100 µM | [49] > 100 µM | [50] > 100 µM | [51] > 100 µM
59 µM: [12]

COc1ccc(CC(CO)NC(=O)OCc2ccccc2)cc1Oc1ccc(CC(CO)NC(=O)OCc2ccccc2)cc1 (configuration not stated)
active: [44] 0.37 µM
29.4 µM: [12]
inactive: [2] 15.5 µM | [3] 11.7 µM | [52] 12.4 µM | [5] 20.4 µM | [6] 5.77 µM | [7] 23.1 µM | [8] 15.4 µM | [9] 3.85 µM | [10] 21.2 µM | [11] 15.1 µM | [14] 15.3 µM | [15] 18.3 µM | [53] 11.1 µM | [54] 11 µM | [17] 12.2 µM | [19] 10.7 µM | [21] 13.1 µM | [22] 15.3 µM | [23] 15.6 µM | [24] 3.43 µM | [55] 7.91 µM | [26] 16.5 µM | [27] 15.7 µM | [56] 1.47 µM | [29] 13.1 µM | [30] 27.9 µM | [31] 15 µM | [33] 11.2 µM | [34] 6.27 µM | [36] 7.82 µM | [37] 11.6 µM | [38] 18.3 µM | [39] 16.1 µM | [40] 5.09 µM | [41] 13.4 µM | [42] 16.7 µM | [43] 19 µM | [45] 26.7 µM | [46] 32.2 µM | [57] 19.4 µM | [48] 21.2 µM | [49] 17 µM | [50] 11.5 µM | [51] 14.3 µM
